Reference: paper PMC5218480 (PLoS ONE, 2017)

Tested on: MV-4-11 cells
Test: Gene expression microarray analysis (Affymetrix PrimeView) and GSEA
Format: cell-based, human
Design: RFU PODN (11730768_x_at) / Fold change /veh PODN (11730768_x_at) / RFU LINC00158 (11744669_a_at) / Fold change /veh LINC00158 (11744669_a_at) / RFU DUSP10 (11751237_a_at) / Fold change /veh DUSP10 (11751237_a_at) / RFU ID3 (11757404_x_at) / Fold change /veh ID3 (11757404_x_at) / RFU PLEKHG5 (11737974_s_at) / Fold change /veh PLEKHG5 (11737974_s_at) / RFU LRRC4B (11730491_at) / Fold change /veh LRRC4B (11730491_at) / RFU GIMAP4 (11747438_a_at) / Fold change /veh GIMAP4 (11747438_a_at) / RFU KRT8 (11758183_x_at) / Fold change /veh KRT8 (11758183_x_at) / RFU CNN1 (11734310_a_at) / Fold change /veh CNN1 (11734310_a_at) / RFU VPS37D (11726825_at) / Fold change /veh VPS37D (11726825_at) / RFU C10orf10 (11716522_x_at) / Fold change /veh C10orf10 (11716522_x_at) / RFU KIR2DL2 /// KIR2DL4 /// KIR2DL5A /// KIR2DL5B /// KIR2DS1 /// KIR2DS2 /// KIR2DS3 /// KIR2DS4 /// KIR3DL3 /// KIR3DL3 /// KIR3DS1 (11738374_at) / Fold change /veh KIR2DL2 /// KIR2DL4 /// KIR2DL5A /// KIR2DL5B /// KIR2DS1 /// KIR2DS2 /// KIR2DS3 /// KIR2DS4 /// KIR3DL3 /// KIR3DL3 /// KIR3DS1 (11738374_at) / RFU C1QL1 (11718748_at) / Fold change /veh C1QL1 (11718748_at) / RFU TMPRSS4 (11747572_a_at) / Fold change /veh TMPRSS4 (11747572_a_at) / RFU HAMP (11756126_x_at) / Fold change /veh HAMP (11756126_x_at) / RFU RNFT2 (11725882_a_at) / Fold change /veh RNFT2 (11725882_a_at) / RFU NR4A2 (11747474_a_at) / Fold change /veh NR4A2 (11747474_a_at) / RFU ABCC12 (11746883_a_at) / Fold change /veh ABCC12 (11746883_a_at) / RFU TMEM136 (11760407_x_at) / Fold change /veh TMEM136 (11760407_x_at) / RFU CLDN22 /// WWC2 (11732394_at) / Fold change /veh CLDN22 /// WWC2 (11732394_at) / RFU HLA-DPB1 (11760878_x_at) / Fold change /veh HLA-DPB1 (11760878_x_at) / RFU SPINT1 (11716480_a_at) / Fold change /veh SPINT1 (11716480_a_at) / RFU GAP43 (11754022_s_at) / Fold change /veh GAP43 (11754022_s_at) / RFU A4GNT (11735810_at) / Fold change /veh A4GNT (11735810_at) / RFU PRB3 (11715151_x_at) / Fold change /veh PRB3 (11715151_x_at) / RFU TUBB4B (11761932_at) / Fold change /veh TUBB4B (11761932_at) / RFU CAPN14 (11732068_a_at) / Fold change /veh CAPN14 (11732068_a_at) / RFU TMCC2 (11721928_a_at) / Fold change /veh TMCC2 (11721928_a_at) / RFU IRGQ (11745062_a_at) / Fold change /veh IRGQ (11745062_a_at) / RFU FAM174B (11720279_a_at) / Fold change /veh FAM174B (11720279_a_at) / RFU TMPRSS4 (11748680_a_at) / Fold change /veh TMPRSS4 (11748680_a_at) / RFU FAM212B (11763350_a_at) / Fold change /veh FAM212B (11763350_a_at) / RFU PLEKHG5 (11743358_a_at) / Fold change /veh PLEKHG5 (11743358_a_at) / RFU ZSCAN30 (11745921_a_at) / Fold change /veh ZSCAN30 (11745921_a_at) / RFU CMKLR1 (11741424_a_at) / Fold change /veh CMKLR1 (11741424_a_at) / RFU LOC101060620 /// MAPK8IP1 (11723275_at) / Fold change /veh LOC101060620 /// MAPK8IP1 (11723275_at) / RFU SPTSSB (11747773_x_at) / Fold change /veh SPTSSB (11747773_x_at) / RFU PRSS12 (11739890_at) / Fold change /veh PRSS12 (11739890_at) / RFU BIN1 (11741810_x_at) / Fold change /veh BIN1 (11741810_x_at) / RFU WNT11 (11732464_a_at) / Fold change /veh WNT11 (11732464_a_at) / RFU C10orf10 (11716521_a_at) / Fold change /veh C10orf10 (11716521_a_at) / RFU C5orf56 (11738089_at) / Fold change /veh C5orf56 (11738089_at) / RFU CYB561 (11721691_x_at) / Fold change /veh CYB561 (11721691_x_at) / RFU ANKRD19P (11752326_a_at) / Fold change /veh ANKRD19P (11752326_a_at) / RFU OR2T12 /// OR2T33 /// OR2T8 (11738714_s_at) / Fold change /veh OR2T12 /// OR2T33 /// OR2T8 (11738714_s_at) / RFU VCAN (11748164_a_at) / Fold change /veh VCAN (11748164_a_at) / RFU JSRP1 (11732532_at) / Fold change /veh JSRP1 (11732532_at) / RFU KRTAP10-11 (11738290_x_at) / Fold change /veh KRTAP10-11 (11738290_x_at) / RFU MYO3A (11730013_a_at) / Fold change /veh MYO3A (11730013_a_at) / RFU EBF3 (11725865_a_at) / Fold change /veh EBF3 (11725865_a_at) / RFU CAMK2N1 (11719241_x_at) / Fold change /veh CAMK2N1 (11719241_x_at) / RFU C5orf56 (11738088_a_at) / Fold change /veh C5orf56 (11738088_a_at) / RFU OLFML3 (11715873_a_at) / Fold change /veh OLFML3 (11715873_a_at) / RFU LOC100653217 /// NTM (11731650_a_at) / Fold change /veh LOC100653217 /// NTM (11731650_a_at) / RFU MAPK11 (11762145_a_at) / Fold change /veh MAPK11 (11762145_a_at) / RFU FIZ1 (11724087_x_at) / Fold change /veh FIZ1 (11724087_x_at) / RFU OASL (11726364_x_at) / Fold change /veh OASL (11726364_x_at) / RFU SOX15 (11748057_x_at) / Fold change /veh SOX15 (11748057_x_at) / RFU CD79A (11719716_a_at) / Fold change /veh CD79A (11719716_a_at) / RFU HIST1H1D (11736915_at) / Fold change /veh HIST1H1D (11736915_at) / RFU CASKIN2 (11723855_a_at) / Fold change /veh CASKIN2 (11723855_a_at) / RFU LOC730098 (11760151_x_at) / Fold change /veh LOC730098 (11760151_x_at) / RFU OR4N2 (11742367_at) / Fold change /veh OR4N2 (11742367_at) / RFU PRRT2 (11749266_a_at) / Fold change /veh PRRT2 (11749266_a_at) / RFU SNX32 (11753110_a_at) / Fold change /veh SNX32 (11753110_a_at) / RFU CDHR5 (11726645_a_at) / Fold change /veh CDHR5 (11726645_a_at) / RFU RCAN1 (11760418_a_at) / Fold change /veh RCAN1 (11760418_a_at) / RFU FAM167A (11723789_a_at) / Fold change /veh FAM167A (11723789_a_at) / RFU FAM26E (11764081_at) / Fold change /veh FAM26E (11764081_at) / RFU ISYNA1 (11749810_s_at) / Fold change /veh ISYNA1 (11749810_s_at) / RFU ACY1 (11761880_at) / Fold change /veh ACY1 (11761880_at) / RFU 11764098_at / Fold change /veh 11764098_at / RFU SAMD14 (11745864_x_at) / Fold change /veh SAMD14 (11745864_x_at) / RFU NPB (11741838_a_at) / Fold change /veh NPB (11741838_a_at) / RFU TMPRSS6 (11731388_a_at) / Fold change /veh TMPRSS6 (11731388_a_at) / RFU KRTAP10-2 (11738614_at) / Fold change /veh KRTAP10-2 (11738614_at) / RFU ARHGAP8 /// PRR5-ARHGAP8 (11727945_x_at) / Fold change /veh ARHGAP8 /// PRR5-ARHGAP8 (11727945_x_at) / RFU KRTAP5-7 /// NADSYN1 (11734609_at) / Fold change /veh KRTAP5-7 /// NADSYN1 (11734609_at) / RFU RASL12 (11751679_a_at) / Fold change /veh RASL12 (11751679_a_at) / RFU CDKN2B (11736163_a_at) / Fold change /veh CDKN2B (11736163_a_at) / RFU PRF1 (11729649_at) / Fold change /veh PRF1 (11729649_at) / RFU, ZNF638 /// ZNF638-IT1 / Fold change vs veh, ZNF638 /// ZNF638-IT1 / RFU, PANK3 / Fold change vs veh, PANK3 / RFU, SH3YL1 / Fold change vs veh, SH3YL1 / RFU, ZEB2 / Fold change vs veh, ZEB2 / RFU, NRIP1 / Fold change vs veh, NRIP1 / RFU, PTTG1IP / Fold change vs veh, PTTG1IP / RFU, CAPN2 / Fold change vs veh, CAPN2 / RFU, MED14 / Fold change vs veh, MED14 / RFU, SNORA58 / Fold change vs veh, SNORA58 / RFU, C1orf63 / Fold change vs veh, C1orf63 / RFU, LRRFIP1 / Fold change vs veh, LRRFIP1 / RFU, NDUFAF7 / Fold change vs veh, NDUFAF7 / RFU, SLC12A2 / Fold change vs veh, SLC12A2 / RFU, IBTK / Fold change vs veh, IBTK / RFU, ESF1 / Fold change vs veh, ESF1 / Fold change vs veh, TMEM50B / RFU, TAOK1 / Fold change vs veh, TAOK1 / RFU, ACBD3 / Fold change vs veh, ACBD3 / RFU, TMA16 / Fold change vs veh, TMA16 / RFU, RWDD3 / Fold change vs veh, RWDD3 / RFU, BCAT1 / Fold change vs veh, BCAT1 / RFU, EDEM3 / Fold change vs veh, EDEM3 / RFU, TMEM33 / Fold change vs veh, TMEM33 / RFU, WDR75 / Fold change vs veh, WDR75 / RFU, AHCTF1 / Fold change vs veh, AHCTF1 / RFU, TFRC / Fold change vs veh, TFRC / RFU, ZDHHC17 / Fold change vs veh, ZDHHC17 / RFU, NOM1 / Fold change vs veh, NOM1 / RFU, ARL8B / Fold change vs veh, ARL8B / RFU, ZBTB11 / Fold change vs veh, ZBTB11 / RFU, TAMM41 / Fold change vs veh, TAMM41 / RFU, KIAA1704 /// LOC100996395 / Fold change vs veh, KIAA1704 /// LOC100996395 / RFU, ING1 / Fold change vs veh, ING1 / RFU, TRMT61B / Fold change vs veh, TRMT61B / RFU, FUBP3 / Fold change vs veh, FUBP3 / RFU, TP53 / Fold change vs veh, TP53 / RFU, TNKS2 / Fold change vs veh, TNKS2 / RFU, ZFP14 / Fold change vs veh, ZFP14 / RFU, ACTR2 / Fold change vs veh, ACTR2 / RFU, PPP3R1 / Fold change vs veh, PPP3R1 / RFU, PIK3R1 / Fold change vs veh, PIK3R1 / RFU, HNRNPA1 / Fold change vs veh, HNRNPA1 / RFU, RNF170 / Fold change vs veh, RNF170 / RFU, ZNF28 / Fold change vs veh, ZNF28 / RFU, RNGTT / Fold change vs veh, RNGTT / RFU, OGT / Fold change vs veh, OGT / RFU, BRD1 / Fold change vs veh, BRD1 / RFU, MARS / Fold change vs veh, MARS / RFU, ZNF655 / Fold change vs veh, ZNF655 / RFU, FAHD1 / Fold change vs veh, FAHD1 / RFU, BDP1 / Fold change vs veh, BDP1 / RFU, LRRCC1 / Fold change vs veh, LRRCC1 / RFU, ARID1A / Fold change vs veh, ARID1A / RFU, ZNF146 / Fold change vs veh, ZNF146 / RFU, ZNF330 / Fold change vs veh, ZNF330 / RFU, GPN3 / Fold change vs veh, GPN3 / RFU, C9orf123 / Fold change vs veh, C9orf123 / RFU, N4BP2L2 / Fold change vs veh, N4BP2L2 / RFU, ARFIP1 / Fold change vs veh, ARFIP1 / RFU, FAM179B / Fold change vs veh, FAM179B / RFU, BCL10 / Fold change vs veh, BCL10 / RFU, UHRF1BP1L / Fold change vs veh, UHRF1BP1L / RFU, BET1 / Fold change vs veh, BET1 / RFU, CNOT2 / Fold change vs veh, CNOT2 / RFU, ZNF268 / Fold change vs veh, ZNF268 / Fold change vs veh, ZNF507 / RFU, DGCR2 / Fold change vs veh, DGCR2 / RFU, WDSUB1 / Fold change vs veh, WDSUB1 / Fold change vs veh, HSP90B1 /// MIR3652 / RFU, ADSS / Fold change vs veh, ADSS / RFU, GK / Fold change vs veh, GK / RFU, ZNF148 / Fold change vs veh, ZNF148 / RFU, TAF9 / Fold change vs veh, TAF9 / RFU, SLC1A5 / Fold change vs veh, SLC1A5 / RFU, SLMO2 / Fold change vs veh, SLMO2 / RFU, ABCC4 / Fold change vs veh, ABCC4 / RFU, LOC101060439 /// RAP1B / Fold change vs veh, LOC101060439 /// RAP1B / RFU, RFX7 / Fold change vs veh, RFX7 / RFU, GTPBP10 / Fold change vs veh, GTPBP10 / RFU, CNEP1R1 / Fold change vs veh, CNEP1R1 / RFU, BIVM-ERCC5 /// ERCC5 / Fold change vs veh, BIVM-ERCC5 /// ERCC5 / RFU, ILF3 / Fold change vs veh, ILF3 / RFU 11762660_at / Fold change /veh 11762660_at / RFU VCAN (11757783_s_at) / Fold change /veh VCAN (11757783_s_at) / RFU DDX43 (11728927_at) / Fold change /veh DDX43 (11728927_at) / RFU KRT8 (11758188_x_at) / Fold change /veh KRT8 (11758188_x_at) / RFU NKD1 (11759106_at) / Fold change /veh NKD1 (11759106_at) / RFU SRD5A1 (11742802_a_at) / Fold change /veh SRD5A1 (11742802_a_at) / RFU TPSAB1 /// TPSB2 (11721975_s_at) / Fold change /veh TPSAB1 /// TPSB2 (11721975_s_at) / RFU GSTM3 (11746129_a_at) / Fold change /veh GSTM3 (11746129_a_at) / RFU IL23R (11737362_x_at) / Fold change /veh IL23R (11737362_x_at) / RFU TMEM51 (11727254_a_at) / Fold change /veh TMEM51 (11727254_a_at) / RFU PIWIL2 (11732686_x_at) / Fold change /veh PIWIL2 (11732686_x_at) / RFU ORM1 (11744905_x_at) / Fold change /veh ORM1 (11744905_x_at) / RFU CCDC152 (11743942_at) / Fold change /veh CCDC152 (11743942_at) / RFU ECM1 (11717891_a_at) / Fold change /veh ECM1 (11717891_a_at) / RFU IL23R (11748794_a_at) / Fold change /veh IL23R (11748794_a_at) / RFU TNFAIP8L3 (11732012_x_at) / Fold change /veh TNFAIP8L3 (11732012_x_at) / RFU MBOAT4 (11741988_at) / Fold change /veh MBOAT4 (11741988_at) / RFU 11764193_at / Fold change /veh 11764193_at / RFU TMEM53 (11763286_at) / Fold change /veh TMEM53 (11763286_at) / RFU MAGEB2 (11727129_at) / Fold change /veh MAGEB2 (11727129_at) / RFU TMEM200A (11744735_a_at) / Fold change /veh TMEM200A (11744735_a_at) / RFU CCDC152 (11751479_a_at) / Fold change /veh CCDC152 (11751479_a_at) / RFU FAM211A (11726209_a_at) / Fold change /veh FAM211A (11726209_a_at) / RFU RGS16 (11746705_a_at) / Fold change /veh RGS16 (11746705_a_at) / RFU VCAN (11755009_s_at) / Fold change /veh VCAN (11755009_s_at) / RFU RHOB (11743442_s_at) / Fold change /veh RHOB (11743442_s_at) / RFU RGS16 (11720943_a_at) / Fold change /veh RGS16 (11720943_a_at) / RFU RGS16 (11720944_at) / Fold change /veh RGS16 (11720944_at) / RFU, VPS4B / Fold change vs veh, VPS4B / RFU, CREB1 / Fold change vs veh, CREB1 / RFU, DNAJC13 / Fold change vs veh, DNAJC13 / RFU, GNAQ / Fold change vs veh, GNAQ / RFU, CDK5R1 / Fold change vs veh, CDK5R1 / RFU, ZRANB3 / Fold change vs veh, ZRANB3 / RFU, CUL4A / Fold change vs veh, CUL4A / RFU, CCNY / Fold change vs veh, CCNY / RFU, UFL1 / Fold change vs veh, UFL1 / RFU, COG3 / Fold change vs veh, COG3 / RFU, DIAPH2 / Fold change vs veh, DIAPH2 / RFU, SKA2 / Fold change vs veh, SKA2 / RFU, AFF3 / Fold change vs veh, AFF3 / RFU, LMF1 / Fold change vs veh, LMF1 / RFU, IPO11 / Fold change vs veh, IPO11 / RFU, DFFB / Fold change vs veh, DFFB / RFU, FOXP1 / Fold change vs veh, FOXP1 / RFU, CARD8 / Fold change vs veh, CARD8 / RFU, STRN3 / Fold change vs veh, STRN3 / RFU, ADK / Fold change vs veh, ADK / RFU, RASSF2 / Fold change vs veh, RASSF2 / RFU, WIPF1 / Fold change vs veh, WIPF1 / RFU, LARP1B / Fold change vs veh, LARP1B / RFU, RASA1 / Fold change vs veh, RASA1 / RFU, RB1 / Fold change vs veh, RB1 / RFU, PPFIA1 / Fold change vs veh, PPFIA1 / RFU, MAT2A / Fold change vs veh, MAT2A / RFU, CCT5 / Fold change vs veh, CCT5 / RFU, WDR92 / Fold change vs veh, WDR92 / RFU, CUX1 / Fold change vs veh, CUX1 / RFU, TTC7A / Fold change vs veh, TTC7A / RFU, TMEM135 / Fold change vs veh, TMEM135 / RFU, DEPTOR / Fold change vs veh, DEPTOR / RFU, CPM / Fold change vs veh, CPM / RFU, DNAJB6 / Fold change vs veh, DNAJB6 / RFU, CACNA2D3 / Fold change vs veh, CACNA2D3 / RFU, DTX4 / Fold change vs veh, DTX4 / RFU, TFCP2 / Fold change vs veh, TFCP2 / RFU, GMCL1 /// GMCL1P1 / Fold change vs veh, GMCL1 /// GMCL1P1 / RFU, AEBP2 / Fold change vs veh, AEBP2 / RFU, SNHG1 /// SNORD22 /// SNORD25 /// SNORD26 /// SNORD27 /// SNORD28 /// SNORD29 /// SNORD31 / Fold change vs veh, SNHG1 /// SNORD22 /// SNORD25 /// SNORD26 /// SNORD27 /// SNORD28 /// SNORD29 /// SNORD31 / Fold change (Aza/veh), C12orf56 (ProbeSet 11735607_a_at) / Fold change (ACY-1035/veh), C12orf56 (ProbeSet 11735607_a_at) / Fold change (Aza/veh), FGFR1OP (ProbeSet 11751329_s_at) / Fold change (ACY-1035/veh), FGFR1OP (ProbeSet 11751329_s_at) / Fold change (Aza/veh), VPS36 (ProbeSet 11739960_a_at) / Fold change (ACY-1035/veh), VPS36 (ProbeSet 11739960_a_at) / RFU SYPL1 (11715823_x_at) / Fold change /veh SYPL1 (11715823_x_at) / RFU IGFBP7 (11715501_s_at) / Fold change /veh IGFBP7 (11715501_s_at) / RFU REEP3 (11722064_at) / Fold change /veh REEP3 (11722064_at) / RFU IGLL1 (11728026_x_at) / Fold change /veh IGLL1 (11728026_x_at): dose or concentration left out as unconfirmed
Conditions: MV-4-11 cells, 48 hours

Compound: Nc1ncn([C@@H]2O[C@H](CO)[C@@H](O)[C@H]2O)c(=O)n1 [azacitidine]
- RFU RGS16 (11720944_at): 63.78 RFU
